Earlier results on one molecule are cited in patent US20040009212A1, “Mucoadhesive thermoresponsive medicament-carrier composition” (PHARMA POWER BIOTEC CO. LTD., priority 2002, published 2004).

The subject of the data set is leukoplakia. The settings on record: of 12 leukoplakia patients.

Molecules are shown by their SMILES.

For `NCC(=O)CCC(=O)O` [ALA, 5-aminolevulinic acid], where the note is “topical ALA in 20wt. % eucerin with arabic gum and paraffin, with PDT”, the patients having response is recorded as 9 patients. Further, under “topical ALA with PDT”, the “patients having full response” value is recorded as 5 patients.
